Measurements taken from ChEMBL document CHEMBL1122740, “Bicyclic lactam inhibitors of angiotensin converting enzyme” (J Med Chem, 1984).
Values joined by “and” are separate entries in the source; they are usually repeats but may differ in a detail not shown here. Identical values can stand only once.

Biological target: T1, Angiotensin-converting enzyme (Oryctolagus cuniculus, UniProt P12822)
T1 sequence (P12822 whole entry): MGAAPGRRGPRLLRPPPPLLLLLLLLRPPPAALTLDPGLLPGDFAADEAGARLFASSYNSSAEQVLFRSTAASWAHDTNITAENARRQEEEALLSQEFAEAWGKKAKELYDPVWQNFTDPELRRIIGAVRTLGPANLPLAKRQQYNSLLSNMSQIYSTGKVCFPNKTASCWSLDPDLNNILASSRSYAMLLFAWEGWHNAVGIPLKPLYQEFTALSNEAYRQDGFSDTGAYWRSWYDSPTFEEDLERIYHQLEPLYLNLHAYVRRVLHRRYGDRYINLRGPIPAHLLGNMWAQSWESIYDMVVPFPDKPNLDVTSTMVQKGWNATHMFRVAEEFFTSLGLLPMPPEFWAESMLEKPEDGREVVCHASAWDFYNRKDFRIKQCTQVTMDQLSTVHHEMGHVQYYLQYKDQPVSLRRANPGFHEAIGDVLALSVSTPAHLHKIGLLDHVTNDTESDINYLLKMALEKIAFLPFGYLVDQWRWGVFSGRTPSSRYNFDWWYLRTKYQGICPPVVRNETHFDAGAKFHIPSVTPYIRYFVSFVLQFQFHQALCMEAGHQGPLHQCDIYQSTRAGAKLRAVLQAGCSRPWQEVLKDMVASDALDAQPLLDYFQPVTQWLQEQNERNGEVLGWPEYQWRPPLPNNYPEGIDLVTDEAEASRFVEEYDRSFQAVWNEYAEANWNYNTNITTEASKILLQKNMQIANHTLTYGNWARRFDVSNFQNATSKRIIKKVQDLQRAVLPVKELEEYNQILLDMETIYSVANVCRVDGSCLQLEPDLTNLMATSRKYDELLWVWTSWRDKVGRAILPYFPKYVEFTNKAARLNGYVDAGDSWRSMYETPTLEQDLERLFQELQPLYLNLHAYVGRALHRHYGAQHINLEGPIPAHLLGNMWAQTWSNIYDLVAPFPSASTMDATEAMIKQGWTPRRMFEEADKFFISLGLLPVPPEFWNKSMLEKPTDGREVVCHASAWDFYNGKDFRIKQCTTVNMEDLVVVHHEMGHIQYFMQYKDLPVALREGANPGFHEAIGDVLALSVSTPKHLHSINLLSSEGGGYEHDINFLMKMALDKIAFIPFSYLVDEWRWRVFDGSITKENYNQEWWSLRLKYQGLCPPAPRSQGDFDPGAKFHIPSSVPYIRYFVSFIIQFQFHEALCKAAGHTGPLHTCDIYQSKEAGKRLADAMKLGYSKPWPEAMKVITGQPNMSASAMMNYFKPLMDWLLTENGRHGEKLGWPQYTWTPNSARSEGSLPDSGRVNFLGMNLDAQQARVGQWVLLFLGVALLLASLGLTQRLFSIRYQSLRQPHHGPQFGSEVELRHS
Assay: Ability to inhibit Angiotensin I converting enzyme was determined

SMILES	IC50
CC(C(=O)O)N1CCCCCC(CS)C1=O (stereo not given)	0.053 µM
O=C(O)CN1CCCCC(CS)C1=O (stereo not given)	0.17 µM
O=C(O)CN1CCCC(CS)C1=O (stereo not given)	1.5 µM and 3.4 µM

Results, then the molecule that gave them:

IC50	SMILES
0.004 µM	O=C(O)CN1C(=O)C(CS)CCCc2ccccc21 (stereo not given)
0.009 µM	O=C(O)CN1C(=O)C(CS)CCc2ccccc21 (stereo not given)
